Laboratory results published in US20260317304A1, “TEAD INHIBITORS AND METHODS OF USE” (Sporos BioDiscovery, Inc., priority 2022, published 2026).

Columns and labels:
[1] = system: NCI-H226 cells; test: Proliferation and cell viability assay, Cell Titer One; format: cell-based, human; details: Cell Titer One assay, 6 days
Method: Cell proliferation of a TEAD dependent NF2-null mesothelioma cell line, NCI-H226 was assayed using two different protocols. Results were confirmed in two different TEAD-non-dependent lung cancer cell lines, H23 and H28, were used as non-responsive controls, as indicated:
b) Cell Titer One (Promega, #G3582). The effect of the TEAD inhibitors disclosed herein on cell proliferation was also determined using the Promega Substrate Cell Titer Aqueous One Solution Reagent. The TEAD inhibitors were evaluated for the effects on cell proliferation responder (H226) and non-responder negative control cancer cell lines (CAMA1, H28), as well as non-transformed normal human cells (HUVEC, NHDF). Dissociated cells were resuspend in media (depending on cell line, either in DMEM, RPMI, or EMEM all with 10% FBS, with gentamicin as an antibiotic). Cells were seeded at 100 μL/well at 750 cells per well in 96-well plates and allowed to settle and attach. After an incubation of 24 hrs (37° C., 5% CO2, humidified incubator), 100 μL of test compound-containing media was added. A dilution series of 2000× concentrated stock of test compounds was prepared in DMSO, for final concentrations from 0.1 to 10,000 nM. After addition of test compound-containing media, cells were incubated for 6 days at 37° C., 5% CO2, humidified incubators). To measure cell density, 20 μL of Promega Substrate Cell Titer 96 Aqueous One Solution Reagent (Promega, #G3582) to each well was added according to the manufacturer's instructions. Plates were incubated at 37° C. for usually 3-8 hrs, to reach in the control cells (without compound) an OD of 1.5 at 490 nm. The OD was measured using Vmax [Molecular Devices] spectrophotometer plate reader. Media only-wells were used as background controls and cell densities normalized to DMSO vehicle control. EC50 were taken as the concentration achieving 50% of maximal growth inhibition.
For IC50 and EC50 data “A” indicates a value of less than 0.2 μM; the symbol “B” indicates a value in the range of from 0.2 μM up to 1 μM; and the symbol “C” indicates a value of greater than 1 μM. ND: no data.

[2] = system: TEAD isoforms 1-4; test: TEAD thermal shift assay (TSA), outcome in words; format: binding, human
Text: (§1) Thermal shift assay (TSA) is a biophysical method to evaluate stability of proteins with change in temperature. The assay measures thermal denaturation temperature in varying conditions such as different drug concentration. For this example, fluorogenic dye was used that bind to unfolded proteins. SYPRO Orange binds non-specifically to hydrophobic surfaces, and water strongly quenches its fluorescence. When the protein unfolds, the exposed hydrophobic surfaces bind the dye, resulting in an increase in fluorescence by excluding water. Detergent micelles also bind the dye and increase background noise dramatically. Binding of small molecules to proteins leads to a stabilization against to thermal denaturation with the degree of thermal stabilization proportional to the strength of binding.
(§2) The study described in this example investigated the change in melting temperature (ΔTm) of TEAD isoforms 1-4 when treated with TEAD inhibitors.
(§3) Tris-HCL was dissolved in 5 mL of Cell culture grade water and allowed to dissolve completely. The pH was adjusted to 8 using NaOH. Additional assay buffer components were added in the order listed above. The buffer was mixed slowly.
(§4) Assay buffer was prepared according to the procedures outlined above and dispensed into test wells. Spyro orange was added to a concentration of 5× in the assay buffer, followed by test compound stock solution which was added to a concentration of 10 μM or 30 μM in the assay buffer.
(§5) The melt cycle was performed in Bio-RAD PCR instrument from 20-95° C. with ramp rate of 1° C./min.

[3] = molecular target: TEAD2 (Homo sapiens, UniProt Q15562); test: TEAD thermal shift assay (TSA); format: binding
Text: as §1, §2, §3, §4, §5

[4] = molecular target: TEAD1 (Homo sapiens, UniProt P28347); test: TEAD thermal shift assay (TSA); format: binding
Text: as §1, §2, §3, §4, §5

[5] = molecular target: TEAD3 (Homo sapiens, UniProt Q99594); test: TEAD thermal shift assay (TSA); format: binding
Text: as §1, §2, §3, §4, §5

[6] = molecular target: TEAD4 (Homo sapiens, UniProt Q15561); test: TEAD thermal shift assay (TSA); format: binding
Text: as §1, §2, §3, §4, §5

[7] = Ratio of Protein to Compound 1:1
[8] = Ratio of Protein to Compound 1:3

Chain of TEAD3 (Q99594 whole entry): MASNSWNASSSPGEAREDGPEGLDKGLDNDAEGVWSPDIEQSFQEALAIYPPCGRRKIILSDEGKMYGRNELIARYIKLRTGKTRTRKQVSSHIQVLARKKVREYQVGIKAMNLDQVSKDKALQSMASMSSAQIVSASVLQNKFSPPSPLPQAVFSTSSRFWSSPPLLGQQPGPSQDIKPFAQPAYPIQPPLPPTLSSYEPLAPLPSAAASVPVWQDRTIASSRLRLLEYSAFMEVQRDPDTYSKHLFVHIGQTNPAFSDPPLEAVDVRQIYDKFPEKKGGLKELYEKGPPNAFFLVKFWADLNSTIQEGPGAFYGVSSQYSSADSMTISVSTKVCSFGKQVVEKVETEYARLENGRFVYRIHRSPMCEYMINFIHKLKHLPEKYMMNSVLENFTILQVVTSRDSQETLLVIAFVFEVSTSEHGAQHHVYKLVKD
Chain of TEAD1 (P28347 whole entry): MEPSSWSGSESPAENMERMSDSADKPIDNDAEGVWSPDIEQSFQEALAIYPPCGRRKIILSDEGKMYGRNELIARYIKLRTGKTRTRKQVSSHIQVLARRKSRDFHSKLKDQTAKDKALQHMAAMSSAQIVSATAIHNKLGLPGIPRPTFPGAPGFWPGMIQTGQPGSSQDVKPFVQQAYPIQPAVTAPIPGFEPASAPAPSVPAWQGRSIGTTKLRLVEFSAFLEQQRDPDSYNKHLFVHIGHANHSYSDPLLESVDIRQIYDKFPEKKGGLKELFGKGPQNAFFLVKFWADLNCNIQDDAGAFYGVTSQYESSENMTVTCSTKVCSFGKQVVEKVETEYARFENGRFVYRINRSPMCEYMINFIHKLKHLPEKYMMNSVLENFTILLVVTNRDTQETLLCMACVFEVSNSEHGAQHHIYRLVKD
Chain of TEAD2 (Q15562 whole entry): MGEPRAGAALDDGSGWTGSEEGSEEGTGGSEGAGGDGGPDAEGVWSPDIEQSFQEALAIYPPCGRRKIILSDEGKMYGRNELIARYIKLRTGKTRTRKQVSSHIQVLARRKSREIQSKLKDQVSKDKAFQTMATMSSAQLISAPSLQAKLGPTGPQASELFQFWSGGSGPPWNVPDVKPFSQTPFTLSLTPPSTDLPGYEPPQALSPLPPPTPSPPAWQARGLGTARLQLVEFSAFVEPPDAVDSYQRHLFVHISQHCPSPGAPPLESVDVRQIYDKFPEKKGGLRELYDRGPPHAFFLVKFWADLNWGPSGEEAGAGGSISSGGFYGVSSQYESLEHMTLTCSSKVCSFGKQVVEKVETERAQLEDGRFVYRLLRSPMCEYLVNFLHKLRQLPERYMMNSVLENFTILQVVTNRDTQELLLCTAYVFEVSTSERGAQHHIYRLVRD
Chain of TEAD4 (Q15561 whole entry): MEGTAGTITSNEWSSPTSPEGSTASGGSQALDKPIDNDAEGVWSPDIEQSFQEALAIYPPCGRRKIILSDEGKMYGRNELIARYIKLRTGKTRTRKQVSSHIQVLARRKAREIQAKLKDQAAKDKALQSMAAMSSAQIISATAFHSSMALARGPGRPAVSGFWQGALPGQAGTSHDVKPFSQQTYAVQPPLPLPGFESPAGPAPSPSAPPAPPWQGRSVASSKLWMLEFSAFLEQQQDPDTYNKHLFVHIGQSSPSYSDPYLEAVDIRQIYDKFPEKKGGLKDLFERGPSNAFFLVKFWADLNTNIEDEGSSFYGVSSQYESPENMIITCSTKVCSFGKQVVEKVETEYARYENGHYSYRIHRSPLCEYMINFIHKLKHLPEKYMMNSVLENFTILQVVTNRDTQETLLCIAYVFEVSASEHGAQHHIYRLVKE

IC50 [1] [nM]	IC50 ([1]; Homo sapiens, NCI-H226, 144 h) [nM]	thermal shift / TEAD binding (in words) [2]	TEAD2 ΔTm [3, 7] [°C]	TEAD2 ΔTm [3, 8] [°C]	TEAD1 ΔTm [4, 7] [°C]	TEAD1 ΔTm [4, 8] [°C]	TEAD3 ΔTm [5, 7] [°C]	TEAD3 ΔTm [5, 8] [°C]	TEAD4 ΔTm [6, 7] [°C]	TEAD4 ΔTm [6, 8] [°C]	SMILES
< 200	–	–	–	–	–	–	–	–	–	–	Cn1cnc(-c2cc(C3(C)NC(=O)NC3=O)ccc2Nc2ccc(C(F)(F)F)cc2)c1 (single isomer, unassigned) [Compound 15, 5-methyl-5-(3-(1-methyl-1H-imidazol-4-yl)-4-((4-(trifluoromethyl)phenyl)amino)phenyl)imidazolidine-2,4-dione]
–	< 200	strong TEAD1 and TEAD4 binding	8.5	11.5	7	10	0	0	1.5	7	Cn1cnc(-c2cc([C@@]3(C)CCNC3=O)ccc2Nc2ccc(C(F)(F)F)cc2)c1 (single isomer, unassigned) [Compound 5, 3-methyl-3-(3-(1-methyl-1H-imidazol-4-yl)-4-((4-(trifluoromethyl)phenyl)amino)phenyl)pyrrolidin-2-one]
